This is an account of results in patent US6759236B1, “Methods to enhance and confine expression of genes” (Research Development Foundation, priority 1998, dated 2004).

For data set [1] the following is noted: cited from earlier work.
For data set [2], the system named is H358 lung carcinoma cell line. In words: Heat inducible, tetracycline feed-forward amplification of p53 expression (p53 immunostaining). The data set is classed as cell-based. The conditions noted are these: 0.1 μg/ml added 6 hours after heating (45° C., 20 min); reached in 10 hours; cells cotransfected with ptet-splice p53 wt and HSP-tetp-TET-ON. How it is done:
Six hours after heat shock, transfected cells were treated with different doses of doxycycline. At various time points after the addition of doxycycline, the cells were stained with a p53 antibody. For each point, the digital images of fifty immunostained cells were captured using a Nikon microscope. […] The plasmid “HSP-tetp-TET-ON” was constructed by replacing the CMV promoter in ptet-on (Clontech) with 300 bp of the human heat shock protein promoter and the tetp promoter. H358, a non-small cell lung carcinoma cell line with a homozygous deletion of p53, was grown in RPMI+10% fetal calf serum. 10^7 exponentially growing cells were cotransfected with 50 μg of “ptet-splice p53 wt” and 10 μg of “HSP-tetp-TET-ON” by electroporation using a BRL cell-Porator at 1180 μF and 240 V in 0.8 ml RPMI+6 mM glucose. Transfected cells were plated out at 25% confluence for 36 hours and then half of them were heat-shocked at 45° C. for twenty minutes. Six hours after heat shock, cells were treated with different doses of doxycycline. […] The amount of protein expressed in each cell is proportional to the intensity of staining which was expressed as I=1/T, where T is a measure of the transmitted light/unit area.

As to `CN(C)[C@@H]1C(O)=C(C(N)=O)C(=O)[C@@]2(O)C(O)=C3C(=O)c4c(O)cccc4[C@@](C)(O)[C@H]3[C@H](O)[C@@H]12` [oxytetracycline], the “level at the end of 24 hours” value in data set [1] (end of 24 hours) is on record as < 25 % of input. For the same compound, the “time at which peak plasma concentration is reached” value in data set [1] (humans, single oral dose) is 2 to 4 h. Moreover, the “fraction removed via the kidney” value in data set [1] (humans) was 10-35%. Besides, in data set [1] (in vivo), the “fraction never absorbed and excreted in the active form” value is on record as 10-30%; the in vivo half-life is 9 h.
For `C[C@H]1c2cccc(O)c2C(=O)C2=C(O)[C@]3(O)C(=O)C(C(N)=O)=C(O)[C@@H](N(C)C)[C@@H]3[C@@H](O)[C@@H]21` [doxycycline], the “amplification of p53” value in data set [2] is listed as “more than 12 fold”. The in vivo half-life in data set [1] (in vivo) is 18 h.
